Data reported in the supplement of paper PMC6045584.
± gives the standard deviation of the averaged measurements.

What was measured:
OSI-906 = compound: C[C@]1(O)C[C@@H](c2nc(-c3ccc4ccc(-c5ccccc5)nc4c3)c3c(N)nccn32)C1 [OSI-906]; test: surviving fraction relative to DMSO-only wells; higher = less growth inhibition; details: exposure time: 5 days
Procedure, shortened: (§1)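 Log-phase tumour cells were seeded at 250–500 per well in 384-well plates and, from 24 hours after seeding, exposed continuously for five days to inhibitors at 0.5, 1, 5, 10, 50, 100, 500 and 1000 nM. Surviving fraction is CellTiter-Glo luminescence normalised to the median of DMSO-only wells. Luminescence was measured after 10 minutes at room temperature, and only lines screened three times with replicate Pearson r >0.7 and median Z' >0.3 were kept.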

YM155 = compound: COCC[n+]1c2c(n(Cc3cnccn3)c1C)C(=O)c1ccccc1C2=O [YM155]; test: as above; details: exposure time: 5 days
Procedure, shortened: as §1

Test System | surviving fraction (OSI-906; 0.5 nM) | surviving fraction (OSI-906; 1 nM) | surviving fraction (OSI-906; 5 nM) | surviving fraction (OSI-906; 10 nM) | surviving fraction (OSI-906; 50 nM) | surviving fraction (OSI-906; 100 nM) | surviving fraction (OSI-906; 500 nM) | surviving fraction (OSI-906; 1000 nM) | surviving fraction (YM155; 0.5 nM) | surviving fraction (YM155; 1 nM) | surviving fraction (YM155; 5 nM) | surviving fraction (YM155; 10 nM) | surviving fraction (YM155; 50 nM) | surviving fraction (YM155; 100 nM) | surviving fraction (YM155; 500 nM) | surviving fraction (YM155; 1000 nM)
ZR751 BREAST | 0.893 ± 0.058 | 0.857 ± 0.08 | 0.879 ± 0.1 | 0.847 ± 0.069 | 0.819 ± 0.091 | 0.795 ± 0.076 | 0.634 ± 0.08 | 0.462 ± 0.022 | 0.835 ± 0.1 | 0.95 ± 0.085 | 0.559 ± 0.083 | 0.411 ± 0.07 | 0.128 ± 0.017 | 0.0917 ± 0.0067 | 0.0307 ± 0.0055 | 0.0287 ± 0.0031
JURKAT HAEMATOPOIETIC AND LYMPHOID TISSUE | 0.966 ± 0.033 | 0.971 ± 0.013 | 0.998 ± 0.032 | 0.9753 ± 0.009 | 0.98 ± 0.067 | 0.965 ± 0.039 | 1.02 ± 0.012 | 0.99 ± 0.021 | 1.02 ± 0.062 | 1.033 ± 0.0072 | 0.782 ± 0.015 | 0.445 ± 0.014 | 0.0363 ± 0.00058 | 0.029 | 0.027 | 0.0317 ± 0.00058
CADOES1 SOFT TISSUE | 1.025 ± 0.0076 | 1.04 ± 0.024 | 0.957 ± 0.096 | 1.02 ± 0.036 | 0.847 ± 0.14 | 0.886 ± 0.1 | 0.871 ± 0.059 | 0.962 ± 0.023 | 1.06 ± 0.12 | 0.907 ± 0.093 | 0.92 ± 0.096 | 0.911 ± 0.12 | 1.02 ± 0.056 | 0.934 ± 0.071 | 0.852 ± 0.054 | 0.881 ± 0.064
DU4475 BREAST | 0.863 ± 0.18 | 0.825 ± 0.18 | 0.726 ± 0.089 | 0.786 ± 0.12 | 0.785 ± 0.18 | 0.553 ± 0.043 | 0.41 ± 0.024 | 0.36 ± 0.08 | 0.934 ± 0.11 | 0.805 ± 0.044 | 0.839 ± 0.08 | 0.903 ± 0.21 | 0.108 ± 0.025 | 0.0437 ± 0.008 | 0.0273 ± 0.0015 | 0.0337 ± 0.0038
G292 BONE | 0.923 ± 0.032 | 0.929 ± 0.035 | 0.929 ± 0.04 | 0.919 ± 0.034 | 0.728 ± 0.059 | 0.624 ± 0.021 | 0.579 ± 0.04 | 0.553 ± 0.045 | 0.967 ± 0.04 | 1 ± 0.047 | 0.654 ± 0.024 | 0.528 ± 0.037 | 0.251 ± 0.0065 | 0.194 ± 0.007 | 0.0688 ± 0.0042 | 0.0473 ± 0.0024
22RV1 PROSTATE | 0.9557 ± 0.009 | 1 ± 0.097 | 0.934 ± 0.11 | 1.01 ± 0.18 | 0.902 ± 0.049 | 0.928 ± 0.077 | 0.911 ± 0.14 | 0.803 ± 0.11 | 1.12 ± 0.21 | 1.05 ± 0.097 | 0.703 ± 0.16 | 0.679 ± 0.13 | 0.151 ± 0.16 | 0.165 ± 0.23 | 0.101 ± 0.14 | 0.121 ± 0.16
NY BONE | 0.9347 ± 0.009 | 0.9183 ± 0.0031 | 1.027 ± 0.01 | 0.96 ± 0.011 | 1 ± 0.011 | 0.977 ± 0.035 | 0.903 ± 0.023 | 0.915 ± 0.038 | 0.911 ± 0.035 | 0.949 ± 0.017 | 0.965 ± 0.021 | 0.997 ± 0.031 | 1.01 ± 0.02 | 0.988 ± 0.037 | 0.449 ± 0.023 | 0.346 ± 0.0047
143B BONE | 1.02 ± 0.048 | 0.972 ± 0.028 | 1.07 ± 0.071 | 1.04 ± 0.05 | 0.959 ± 0.083 | 0.99 ± 0.011 | 0.9825 ± 0.0078 | 0.989 ± 0.023 | 0.89 ± 0.082 | 0.987 ± 0.027 | 0.431 | 0.246 ± 0.042 | 0.0735 ± 0.0064 | 0.0375 ± 0.0021 | 0.022 ± 0.0014 | 0.0265 ± 0.00071
SJSA1 BONE | 1.23 ± 0.051 | 1.22 ± 0.075 | 1.17 ± 0.2 | 1.21 ± 0.11 | 0.917 ± 0.21 | 1.62 ± 0.052 | 0.785 ± 0.31 | 0.388 ± 0.031 | 1 ± 0.059 | 1.6 ± 0.045 | 1.46 ± 0.018 | 1.59 ± 0.028 | 1.7 ± 0.11 | 1.7 ± 0.074 | 1.6 ± 0.15 | 1.53 ± 0.16
SG32 HEADNECK | 0.714 ± 0.15 | 0.689 ± 0.0095 | 0.767 ± 0.13 | 0.632 ± 0.057 | 0.845 ± 0.021 | 0.793 ± 0.071 | 0.596 ± 0.084 | 0.498 ± 0.048 | 0.841 ± 0.053 | 0.83 ± 0.12 | 0.438 ± 0.017 | 0.238 ± 0.036 | 0.0633 ± 0.027 | 0.025 ± 0.0036 | 0.0197 ± 0.0021 | 0.0227 ± 0.0011
PCI30 HEADNECK | 0.89 ± 0.027 | 0.947 ± 0.022 | 0.955 ± 0.076 | 1.05 ± 0.074 | 1.07 ± 0.051 | 1.01 ± 0.077 | 0.939 ± 0.075 | 0.931 ± 0.033 | 0.933 ± 0.064 | 0.84 ± 0.075 | 0.793 ± 0.021 | 0.491 ± 0.017 | 0.04 ± 0.0027 | 0.024 ± 0.0017 | 0.021 ± 0.0017 | 0.0233 ± 0.00058
SIHA CERVIX | 0.931 ± 0.067 | 0.888 ± 0.012 | 0.992 ± 0.11 | 0.886 ± 0.056 | 1.04 ± 0.057 | 1.01 ± 0.065 | 0.935 ± 0.046 | 0.966 ± 0.026 | 0.917 ± 0.056 | 0.938 ± 0.069 | 0.977 ± 0.049 | 0.735 ± 0.011 | 0.0433 ± 0.0055 | 0.022 ± 0.002 | 0.0197 ± 0.00058 | 0.0243 ± 0.0015
HS57T BREAST | 0.862 ± 0.014 | 0.89 ± 0.068 | 0.869 ± 0.047 | 0.902 ± 0.052 | 0.934 ± 0.032 | 0.881 ± 0.023 | 0.915 ± 0.047 | 0.826 ± 0.082 | 0.919 ± 0.02 | 0.923 ± 0.056 | 0.729 ± 0.058 | 0.799 ± 0.1 | 0.287 ± 0.029 | 0.182 ± 0.013 | 0.0527 ± 0.0015 | 0.0473 ± 0.0047
HCC1806 BREAST | 0.722 ± 0.032 | 0.721 ± 0.093 | 0.783 ± 0.11 | 0.822 ± 0.03 | 0.962 ± 0.077 | 1.07 ± 0.064 | 0.883 ± 0.04 | 0.826 ± 0.036 | 1.04 ± 0.077 | 1.08 ± 0.15 | 0.308 ± 0.016 | 0.284 ± 0.01 | 0.064 ± 0.0027 | 0.05 ± 0.0044 | 0.024 | 0.0257 ± 0.0015
BT549 BREAST | 0.867 ± 0.08 | 0.792 ± 0.027 | 0.836 ± 0.048 | 0.88 ± 0.13 | 1.11 ± 0.18 | 0.984 ± 0.059 | 1.1 ± 0.096 | 0.94 ± 0.067 | 1.08 ± 0.11 | 1.03 ± 0.11 | 0.99 ± 0.0076 | 0.834 ± 0.11 | 0.256 ± 0.083 | 0.0713 ± 0.018 | 0.029 ± 0.008 | 0.0307 ± 0.0023
